Experimental data: patent US20200071310A1, “N-ARYL PYRAZOLES AS NRF2 REGULATORS” (GLAXOSMITHKLINE INTELLECTUAL PROPERTY DEVELOPMENT LIMITED, priority 2016, published 2020)
Like-named read-outs stand apart in the source and are kept apart here.

Legend:
[1] = tested on: NQO1 specific enzyme activity in BEAS-2B cells; test: BEAS-2B NQO1 MTT Assay; format: cell-based; conditions: Homo sapiens
Excerpt: NAD(P)H:quinone oxidoreductase 1 (NQO1), also called DT diaphorase, is a homodimeric FAD-containing enzyme that catalyzes obligatory NAD(P)H-dependent two-electron reductions of quinones and protects cells against the toxic and neoplastic effects of free radicals and reactive oxygen species arising from one-electron reductions. The transcription of NQO1 is finely regulated by NRF2, and thus NQO1 activity is a good marker for NRF2 activation. On day one, frozen BEAS-2B cells (ATCC) were thawed in a water bath, counted, and re-suspended at a concentration of 250,000 cells/mL. Fifty microliters of cells were plated in 384 well black clear-bottomed plates. Plates were incubated at 37° C., 5% CO2 overnight. On day two, plates were centrifuged and 50 nL of compound or controls were added to the cells. Plates were then incubated at 37° C., 5% CO2 for 48 hours. On day four, medium was aspirated from the plate and crude cell lysates were made by adding 13 uL of 1× Cell Signaling Technologies lysis buffer with 1 Complete, Mini, EDTA-free Protease Inhibitor Tablet (Roche) for each 10 mL of lysis buffer. After lysis plates were incubated for 20 minutes at room temperature. Two microliters of lysate were removed for use in Cell Titer Glo assay (Promega) and MTT cocktail was prepared (Prochaska et. al. 1998) for measurement of NQO1 activity. Fifty microliters of MTT cocktail is added to each well, plate is centrifuged, and analyzed on an Envision plate reader (Perkin Elmer) using Absorbance 570 nm label for 30 minutes. Product formation was measured kinetically and the pEC50 of NQO1 specific activity induction was calculated by plotting the change in absorbance (Delta OD/min) versus the log of compound concentration followed by 3-parameter fitting. pEC50 is the negative log of the EC50.

[2] = target: T1, full length Keap1 protein / full length NRF2 protein (Homo sapiens, UniProt Q14145); test: NRF2-Keap1 TR-FRET Low Protein Assay; format: binding
T1 construct: full length NRF2 protein and full length Keap1 protein (Keap1 exists a dimer) are used; His
T1 sequence (Q14145 whole entry): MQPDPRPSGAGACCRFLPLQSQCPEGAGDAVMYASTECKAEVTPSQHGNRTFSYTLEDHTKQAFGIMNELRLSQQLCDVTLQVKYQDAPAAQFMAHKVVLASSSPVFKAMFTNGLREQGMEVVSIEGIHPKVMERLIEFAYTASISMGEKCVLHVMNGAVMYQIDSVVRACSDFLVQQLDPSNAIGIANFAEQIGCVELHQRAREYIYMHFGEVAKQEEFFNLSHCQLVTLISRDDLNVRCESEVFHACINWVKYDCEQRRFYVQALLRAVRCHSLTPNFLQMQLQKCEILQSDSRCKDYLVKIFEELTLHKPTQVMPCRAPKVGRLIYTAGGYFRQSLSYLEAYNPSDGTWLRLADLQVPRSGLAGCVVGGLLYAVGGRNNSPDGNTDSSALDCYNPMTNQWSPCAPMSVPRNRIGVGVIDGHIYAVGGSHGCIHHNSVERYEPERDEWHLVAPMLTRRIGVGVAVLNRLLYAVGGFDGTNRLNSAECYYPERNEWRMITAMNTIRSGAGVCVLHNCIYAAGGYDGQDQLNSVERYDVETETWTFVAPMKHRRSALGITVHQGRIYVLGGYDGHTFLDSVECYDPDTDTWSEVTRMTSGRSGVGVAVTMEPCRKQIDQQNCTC
Excerpt: In the NRF2-Keap1 TR-FRET (time-resolved fluorescence resonance energy transfer) low protein assay, full length NRF2 protein and full length Keap1 protein (Keap1 exists a dimer) are used. The assay detects a compound's ability to displace the binding of Keap1 FlagHis with biotinylated Avi-NRF2 protein. Biotin-NRF2 binds to streptavidin-europium (a component of the detection mix) and Keap1 FlagHis is recognized by anti-Flag APC (allophycocyanin) antibody (also a component of the detection mix). If binding occurs between the two proteins, there will be an energy transfer from the Eu+3 (donor) at 615 nm to the APC (acceptor) at 665 nm. A potential NRF2 inhibitor will cause a reduction in the TR-FRET signal by interfering with the binding of Keap1 to NRF2.
Ten nanoliters of 100× compound dose response curves (serial 3-fold dilutions) in DMSO were stamped using an Echo liquid handling system (Labcyte) into 384-well, low volume, black assay plates (Greiner, #784076), with DMSO in columns 6 and 18. An additional 90 nl DMSO was added to each well, to bring the total volume to 100 nl per well. The top concentration of compound was located in columns 1 and 13, with the serial dilutions going across the row. All reagents were diluted in assay buffer (50 mM Tris, pH 8.0, 5 mM MgCl2, 100 mM NaCl, 0.005% BSA, 1 mM DTT, and 2 mM CHAPS. The BSA, DTT, and CHAPS were added to the assay buffer on the day of assay. Using a Multidrop Combi (Thermo Electron Corporation) equipped with a metal tip dispenser, 5 ul of 1.25 nM Keap1 FlagHis protein was added to all wells of the compound plate, with the exception of the wells in column 18. Wells in column 18 received 5 ul of assay buffer instead. Plates were centrifuged at 500 rpm for 1 minute, covered with a plate lid, and incubated at 37° C. for 2.25 hours. Plates were then removed from the incubator and allowed to cool to RT for 15 minutes. Five microliters of 2.5 nM biotin-NRF2 protein was then added to all wells of the plates and the plates were spun at 500 rpm for 1 minute, followed by incubating at 4° C. for 1.25 hours. The plates were then allowed to warm to RT for 15 minutes, followed by the addition of 10 ul of detection mix (1 nM Streptavidin Eu+W1024 and 5 ug/ml mouse anti-DYKDDDDK IgG conjugated to SureLight APC antibody; both from Columbia Biosciences) to all wells. Plates were spun at 500 rpm for 1 minute, incubated for 1 hour at RT, and read on an Envision plate reader using a 320 nm excitation filter and 615 nm and 665 nm emission filters. Compound response (% inhibition) and potency (pIC50) were calculated based on the ratio of the two emissions (665 nm/615 nm) and then the transformed data was normalized against controls in the assay (control 1=1% DMSO in the presence of NRF2 and Keap1 protein and control 2=1% DMSO in the presence of only the NRF2 protein). Data analysis was handled using the software package Abase XE (Surrey, United Kingdom). The % inhibition values were calculated from the ratio (transformed) data by the equation:
100−(100*(compound response−average control 2)/(average control 1−average control2)).
For calculation of pIC50s, Abase XE used a four parameter equation.
IC50s<10 nM (+++++), IC50s 10-100 nM (++++), IC50s 100 nM-1 uM (+++), IC50s 1-10 uM (++). and IC50s 10 uM-100 uM (+), IC50s>100 uM (−), or were not determined (ND).

[3] = NQO1 specific activity induction, BEAS-2B cells, 48 hours, read-out: EC50

| EC50 [2] [nM] | SMILES | EC50 [1, 3] [nM] | EC50 ([1]; BEAS-2B, 48 h) [nM] |
| --- | --- | --- | --- |
| 10 to 100 | CC[C@@H]1CN(Cc2cccc(-n3ncc(C(=O)O)c3[C@@H]3C[C@H]3c3cn(C)nn3)c2)S(=O)(=O)c2ccccc2O1 [Example 3] | 100 to 1000 | – |
| 100 to 1000 | Cn1cc([C@@H]2C[C@H]2c2c(C(=O)O)cnn2-c2cccc(CN3Cc4ccccc4CC(C)(C)C3)c2)nn1 (racemic) [Example 7] | 100 to 1000 | – |
| 10 to 100 | Cn1cc([C@@H]2C[C@H]2c2c(C(=O)O)cnn2-c2cccc(CN3CC(C)(C)Oc4ccc(F)cc4S3(=O)=O)c2)nn1 (racemic) [Example 5] | 1000 to 10000 | – |
| < 10 | CC[C@H]1Cc2ccc(Br)cc2S(=O)(=O)N(Cc2cccc(-n3ncc(C(=O)O)c3[C@@H]3C[C@H]3c3cn(C)nn3)c2)C1 [Example 22, 1-(3-(((S)-8-bromo-4-ethyl-1,1-dioxido-4,5-dihydrobenzo[f][1,2]thiazepin-2(3H)-yl)methyl)phenyl)-5-((1R,2R)-2-(1-methyl-1H-1,2,3-triazol-4-yl)cyclopropyl)-1H-pyrazole-4-carboxylic acid] | 1 to 10 | – |
| 100 to 1000 | Cn1cc([C@@H]2C[C@H]2c2c(C(=O)O)cnn2-c2cccc(CN3Cc4ccccc4OC(C)(C)C3)c2)nn1 (racemic) [Example 8] | 1000 to 10000 | – |
| 100 to 1000 | C[C@H]1Cc2ccc(C(F)(F)F)cc2S(=O)(=O)N([C@H]2CCc3c2cccc3-n2ncc(C(=O)O)c2[C@@H]2C[C@H]2c2cn(C)nn2)C1 [Example 26a, 1-((S)-1-((S)-4-Methyl-1,1-dioxido-8-(trifluoromethyl)-4,5-dihydrobenzo[f][1,2]thiazepin-2(3H)-yl)-2,3-dihydro-1H-inden-4-yl)-5-((1R,2R)-2-(1-methyl-1H-1,2,3-triazol-4-yl)cyclopropyl)-1H-pyrazole-4-carboxylic acid] | 100 to 1000 | – |
| 10 to 100 | C[C@@H]1Cc2cc(C(F)(F)F)ccc2S(=O)(=O)N(Cc2cccc(-n3ncc(C(=O)O)c3[C@@H]3C[C@H]3c3cn(C)nn3)c2)C1 (racemic) [Example 18, 1-(3-((4-methyl-1,1-dioxido-7-(trifluoromethyl)-4,5-dihydro-benzo[f][1,2]thiazepin-2(3H)-yl)methyl)phenyl)-5-((trans)-2-(1-methyl-1H-1,2,3-triazol-4-yl)cyclopropyl)-1H-pyrazole-4-carboxylic acid] | 10 to 100 | – |
| 10 to 100 | Cn1cc([C@@H]2C[C@H]2c2c(C(=O)O)cnn2-c2cccc(CN3Cc4cc(Br)ccc4OC(C)(C)C3)c2)nn1 (racemic) [Example 13] | 100 to 1000 | – |
| 10 to 100 | CC(c1cccc(-n2ncc(C(=O)O)c2[C@@H]2C[C@H]2c2cn(C)nn2)c1)N1C[C@@H](C)Cc2ccc(C(F)(F)F)cc2S1(=O)=O (single isomer, unassigned) [Example 6, 1-(3-((R or S)-1-((S)-4-Methyl-1,1-dioxido-8-(trifluoromethyl)-4,5-dihydrobenzo[f][1,2]thiazepin-2(3H)-yl)ethyl)phenyl)-5-((1R,2R)-2-(1-methyl-1H-1,2,3-triazol-4-yl)cyclopropyl)-1H-pyrazole-4-carboxylic acid] | 100 to 1000 | – |
| 100 to 1000 | Cn1cc([C@@H]2C[C@H]2c2c(C(=O)O)cnn2-c2cccc(Cn3ccnc3CN3CCCCC3)c2)nn1 (racemic) [Example 24] | 1000 to 10000 | – |
| < 10 | CC[C@H]1Cc2ccc(C(F)(F)F)cc2S(=O)(=O)N(Cc2cccc(-n3ncc(C(=O)O)c3[C@@H]3C[C@H]3c3cn(C)nn3)c2)C1 [Example 20, 1-(3-(((S)-4-ethyl-1,1-dioxido-8-(trifluoromethyl)-4,5-dihydrobenzo[f][1,2]thiazepin-2(3H)-yl)methyl)phenyl)-5-((1R,2R)-2-(1-methyl-1H-1,2,3-triazol-4-yl)cyclopropyl)-1H-pyrazole-4-carboxylic acid] | 1 to 10 | – |
| 1000 to 10000 | CCCCCCN(Cc1cccc(-n2ncc(C(=O)O)c2[C@@H]2C[C@H]2c2cn(C)nn2)c1)S(=O)(=O)c1ccccc1Oc1ccccc1 (racemic) [Example 49, 1-(3-((N-hexyl-2-phenoxyphenylsulfonamido)methyl)phenyl)-5-((trans)-2-(1-methyl-1H-1,2,3-triazol-4-yl)cyclopropyl)-1H-pyrazole-4-carboxylic acid] | 100 to 1000 | – |
| 1000 to 10000 | COc1ccc(Br)cc1S(=O)(=O)N(C)Cc1cccc(-n2ncc(C(=O)O)c2[C@@H]2C[C@H]2c2cn(C)nn2)c1 (racemic) [Example 43, 1-(3-((5-bromo-2-methoxy-N-methylphenylsulfonamido)methyl)phenyl)-5-((trans)-2-(1-methyl-1H-1,2,3-triazol-4-yl)cyclopropyl)-1H-pyrazole-4-carboxylic acid] | 1000 to 10000 | – |
| 10000 to 100000 | C[C@@H]1Cc2cc(C(F)(F)F)ccc2S(=O)(=O)N(Cc2cccc(-n3ncc(C(=O)O)c3[C@@H]3C[C@H]3c3cnn(C)c3)c2)C1 [Example 33, 1-(3-(((R)-4-methyl-1,1-dioxido-7-(trifluoromethyl)-4,5-dihydro-benzo[f][1,2]thiazepin-2(3H)-yl)methyl)phenyl)-5-(trans-2-(1-methyl-1H-pyrazol-4-yl)cyclopropyl)-1H-pyrazole-4-carboxylic acid] | 1000 to 10000 | – |
| 1000 to 10000 | COc1ccccc1S(=O)(=O)N(C)Cc1cccc(-n2ncc(C(=O)O)c2[C@@H]2C[C@H]2c2cn(C)nn2)c1 (racemic) [Example 47, 1-(3-((2-methoxy-N-methylphenylsulfonamido)methyl)phenyl)-5-((trans)-2-(1-methyl-1H-1,2,3-triazol-4-yl)cyclopropyl)-1H-pyrazole-4-carboxylic acid] | 10 to 100 | – |
| 10 to 100 | CC[C@@H]1CN(Cc2cccc(-n3ncc(C(=O)O)c3[C@@H]3C[C@H]3c3cn(CC(F)(F)F)nn3)c2)S(=O)(=O)c2ccccc2O1 [Example 29] | 100 to 1000 | – |
| 1000 to 10000 | CN(Cc1cccc(-n2ncc(C(=O)O)c2[C@@H]2C[C@H]2c2cn(C)nn2)c1)S(=O)(=O)c1ccccc1 (racemic) [Example 48, 5-((trans)-2-(1-methyl-1H-1,2,3-triazol-4-yl)cyclopropyl)-1-(3-((N-methylphenylsulfonamido)methyl)phenyl)-1H-pyrazole-4-carboxylic acid] | 1000 to 10000 | – |

| SMILES | EC50 [2] [nM] | EC50 [1, 3] [nM] | EC50 ([1]; BEAS-2B, 48 h) [nM] |
| --- | --- | --- | --- |
| CC[C@@H]1CN(Cc2cccc(-n3ncc(C(=O)O)c3[C@@H]3C[C@H]3c3cn(C)nn3)c2)Cc2ccccc2O1 (racemic) [Example 14] | 1000 to 10000 | – | 1000 to 10000 |
